In US20110098296A1, “Thiazole And Oxazole Kinase Inhibitors” (priority 2007, published 2011):
Counter-ions that a name gives are not always drawn.

How the values were obtained:
[1] = molecular target: T1, EGFR (Homo sapiens, UniProt P00533); assay: EGFR substrate phosphorylation assay (HTRF); assay type: biochemical; details: Method (A): Enzyme Mix incubated with compound at 20° C. for 1 hr, reaction started by adding Substrate Mix
T1 construct: made in house; host or cells: baculovirus expression system
T1 sequence (P00533 25-1210): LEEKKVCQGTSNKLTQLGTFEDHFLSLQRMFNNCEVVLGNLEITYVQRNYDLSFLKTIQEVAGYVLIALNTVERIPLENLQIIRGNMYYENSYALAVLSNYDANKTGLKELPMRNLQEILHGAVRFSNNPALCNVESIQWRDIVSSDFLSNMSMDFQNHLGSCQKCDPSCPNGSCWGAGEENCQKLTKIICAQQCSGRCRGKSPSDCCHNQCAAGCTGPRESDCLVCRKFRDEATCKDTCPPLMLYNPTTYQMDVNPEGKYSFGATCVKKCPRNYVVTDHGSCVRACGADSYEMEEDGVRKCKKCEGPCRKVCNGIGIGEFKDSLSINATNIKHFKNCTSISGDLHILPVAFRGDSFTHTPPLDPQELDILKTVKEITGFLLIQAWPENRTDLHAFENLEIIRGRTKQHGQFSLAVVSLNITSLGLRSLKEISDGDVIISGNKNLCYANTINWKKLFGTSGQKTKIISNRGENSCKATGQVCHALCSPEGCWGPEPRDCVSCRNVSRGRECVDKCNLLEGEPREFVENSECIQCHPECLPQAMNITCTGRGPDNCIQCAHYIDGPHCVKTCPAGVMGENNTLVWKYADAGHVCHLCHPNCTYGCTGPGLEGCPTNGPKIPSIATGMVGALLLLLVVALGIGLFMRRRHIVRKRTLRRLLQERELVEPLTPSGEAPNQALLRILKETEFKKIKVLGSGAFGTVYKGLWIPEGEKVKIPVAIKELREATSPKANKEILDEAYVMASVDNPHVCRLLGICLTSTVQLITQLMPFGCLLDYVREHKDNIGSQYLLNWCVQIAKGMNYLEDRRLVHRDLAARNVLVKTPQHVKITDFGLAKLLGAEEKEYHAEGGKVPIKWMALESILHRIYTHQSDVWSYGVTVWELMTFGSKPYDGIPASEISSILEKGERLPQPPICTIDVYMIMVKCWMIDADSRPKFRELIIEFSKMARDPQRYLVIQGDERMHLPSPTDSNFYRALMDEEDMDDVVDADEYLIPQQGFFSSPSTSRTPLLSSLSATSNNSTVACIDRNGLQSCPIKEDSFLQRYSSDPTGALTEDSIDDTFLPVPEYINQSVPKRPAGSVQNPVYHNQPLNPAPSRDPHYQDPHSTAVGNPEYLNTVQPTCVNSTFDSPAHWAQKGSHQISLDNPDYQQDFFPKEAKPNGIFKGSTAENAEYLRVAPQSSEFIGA
Summary of the method: (§1)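 Baculovirus-expressed kinase (0.8 nM EGFR or 10 nM ErbB2 in enzyme mix) with Peptide C 0.8 μM and ATP 20 μM (substrate-mix levels), MOPS pH 7.5, MnCl2; 90 min, 20 °C, HTRF anti-phosphotyrosine. Method A adds 1 h enzyme–compound preincubation; B none. pIC50, final compound 0.00027–47.6 μM.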

[2] = system: Colo205 tumor cells; assay: Method B: CellTiter-Glo Growth Inhibition Assay, Colo205; assay type: cell-based; details: Homo sapiens, COLO 205, 72 h, 3 days
Protocol: (§2) Human breast tumor cells (BT474) were cultured in RPMI, (Invitrogen, 22400) containing 10% fetal bovine serum (FBS). Human head and neck tumor cells (HN5) were cultured in low glucose DMEM (Invitrogen, 12320) containing 10% FBS. Human colon tumor cells (Colo205) were cultured in DMEM (Invitrogen, 10564) containing 10% FBS. Human melanoma cancer cells (SK-MEL-28) were incubated in DMEM (Invitrogen). All cell lines were maintained at 37° C. in a humidified 5% CO2, 95% air incubator. Cells were harvested using trypsin/EDTA, counted using a haemocytometer, and plated in 30 μL of the appropriate media described above, at the following densities, in a half-area, black-walled, 96-well tissue culture plate (Corning 3882): BT474 3,000 cells/well, HN5 500 cells/well, Colo205 3,000 cells/well, and SK-MEL-28 500 cells/well). The next day, compounds were diluted in DMEM containing […] gentamicin, from 10 mM stock solutions in DMSO. 30 μL/well of these dilutions were added to the 30 μL/well of media currently on the cell plates. Medium containing 0.6% DMSO was added to control wells. The final concentration of DMSO in all wells was 0.3%. Cells were incubated at 37° C., 5% CO2 for 3 days. Cell biomass was estimated using CellTiter-Glo® reagent (Promega G7571). Briefly, plates were removed from the incubator and allowed to equilibrate to rt for 30 minutes. 25-60 μL of CellTiter-Glo® reagent were added to each well of the treated cells and plates were shaken on an orbital plate shaker for 2 mins. Plates were incubated without shaking for 30 more mins and read in a luminometer with an integration time of 0.5 seconds per well. Percent inhibition of cell growth was calculated relative to vehicle-treated control wells. Concentration of compound that inhibits 50% of vehicle control cell growth (IC50) was interpolated using nonlinear regression (Levenberg-Marquardt) and the equation, y=V max*(1−(x/(K+x)))+Y2, where “K” was equal to the IC50.

[3] = system: BT474 tumor cells; assay: Method B: CellTiter-Glo Growth Inhibition Assay, BT474; assay type: cell-based; details: Homo sapiens, BT-474, 72 h, 3 days
Protocol: as §2

[4] = molecular target: T2, ErbB2 (Homo sapiens, UniProt P04626); assay: ErbB-2 substrate phosphorylation assay (HTRF); assay type: biochemical; details: Method (A): Enzyme Mix incubated with compound at 20° C. for 1 hr, reaction started by adding Substrate Mix
T2 construct: made in house; host or cells: baculovirus expression system
T2 sequence (P04626 23-1255): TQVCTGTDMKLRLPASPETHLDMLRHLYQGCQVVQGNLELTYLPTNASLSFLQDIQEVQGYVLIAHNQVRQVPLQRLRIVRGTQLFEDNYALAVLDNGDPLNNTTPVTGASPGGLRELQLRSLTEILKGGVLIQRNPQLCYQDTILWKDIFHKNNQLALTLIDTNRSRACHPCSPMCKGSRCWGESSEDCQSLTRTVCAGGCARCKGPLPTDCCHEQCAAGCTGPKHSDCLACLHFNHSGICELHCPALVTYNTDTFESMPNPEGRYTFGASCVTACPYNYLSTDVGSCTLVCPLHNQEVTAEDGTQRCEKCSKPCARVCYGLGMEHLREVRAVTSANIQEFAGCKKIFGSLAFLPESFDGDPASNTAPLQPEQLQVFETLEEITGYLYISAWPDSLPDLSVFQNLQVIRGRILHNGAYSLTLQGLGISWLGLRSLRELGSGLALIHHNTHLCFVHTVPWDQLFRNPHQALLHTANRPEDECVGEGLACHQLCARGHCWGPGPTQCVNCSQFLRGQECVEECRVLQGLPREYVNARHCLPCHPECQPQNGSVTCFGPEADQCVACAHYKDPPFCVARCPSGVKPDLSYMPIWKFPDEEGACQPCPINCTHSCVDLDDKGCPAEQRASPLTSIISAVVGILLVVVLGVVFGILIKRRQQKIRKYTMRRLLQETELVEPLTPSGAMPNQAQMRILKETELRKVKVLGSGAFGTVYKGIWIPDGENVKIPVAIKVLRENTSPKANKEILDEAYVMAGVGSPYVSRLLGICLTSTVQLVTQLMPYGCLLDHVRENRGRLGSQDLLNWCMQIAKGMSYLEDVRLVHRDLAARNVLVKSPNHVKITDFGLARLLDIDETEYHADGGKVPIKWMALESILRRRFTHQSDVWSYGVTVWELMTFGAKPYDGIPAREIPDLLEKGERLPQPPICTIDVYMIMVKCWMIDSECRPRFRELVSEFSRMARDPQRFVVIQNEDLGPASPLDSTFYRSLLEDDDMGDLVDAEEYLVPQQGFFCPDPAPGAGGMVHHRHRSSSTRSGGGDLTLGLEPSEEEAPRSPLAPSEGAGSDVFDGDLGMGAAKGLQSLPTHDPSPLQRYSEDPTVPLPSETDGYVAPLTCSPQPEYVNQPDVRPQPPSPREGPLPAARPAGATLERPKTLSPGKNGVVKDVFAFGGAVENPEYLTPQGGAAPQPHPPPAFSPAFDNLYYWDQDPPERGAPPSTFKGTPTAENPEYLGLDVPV
Summary of the method: as §1

[5] = system: HN5 tumor cells; assay: Method B: CellTiter-Glo Growth Inhibition Assay, HN5; assay type: cell-based; details: Homo sapiens, 72 h, 3 days
Protocol: as §2

[6] = system: HN5 tumor cells; assay: Method C: Cell Growth Inhibition Assay (CellTiter-Glo), HN5; assay type: cell-based; details: Homo sapiens, 72 h, 3 days, 4-parameter fit
Summary of the method: (§3)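 HT-29 and HN5 were grown in high-glucose DMEM with 10% FBS, SK-MEL-28 in EMEM with nonessential amino acids, sodium pyruvate and 10% FBS, and A375P F11s in RPMI with 10% FBS and sodium pyruvate. Cells (500/well) received 1:3 compound dilutions for 3 days, with CellTiter-Glo readout and 4-parameter IC50.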

[7] = system: BT474 tumor cells; assay: Method C: Cell Growth Inhibition Assay (CellTiter-Glo), BT474; assay type: cell-based; details: Homo sapiens, BT-474, 72 h, 3 days, 4-parameter fit
[8] = system: Colo205 tumor cells; assay: Method C: Cell Growth Inhibition Assay (CellTiter-Glo), Colo205; assay type: cell-based; details: Homo sapiens, COLO 205, 72 h, 3 days, 4-parameter fit
Summary of the method: (§4)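 Cells plated at 500 cells/well, dosed next day with 10-point 1:3 dilution series (0.2% final DMSO) and grown 3 days at 37 °C, 5% CO2. CellTiter-Glo luminescence (total ATP) served as cell-number surrogate; inhibition relative to DMSO controls, IC50 interpolated by 4-parameter fit.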

[9] = system: A375P F11s tumor cells; assay: Method C: Cell Growth Inhibition Assay (CellTiter-Glo), A375P F11s; assay type: cell-based; details: Homo sapiens, 72 h, 3 days, 4-parameter fit
Summary of the method: as §3

[10] = system: SK-MEL-3 tumor cells; assay: Method C: Cell Growth Inhibition Assay (CellTiter-Glo), SK-MEL-3; assay type: cell-based; details: Homo sapiens, SK-MEL3, 72 h, 3 days, 4-parameter fit
Summary of the method: as §4

[11] = system: SK-MEL-28 tumor cells; assay: Method C: Cell Growth Inhibition Assay (CellTiter-Glo), SK-MEL-28; assay type: cell-based; details: Homo sapiens, SK-MEL-28, 72 h, 3 days, 4-parameter fit
Summary of the method: as §3

[12] = system: HT-29 tumor cells; assay: Method C: Cell Growth Inhibition Assay (CellTiter-Glo), HT-29; assay type: cell-based; details: Homo sapiens, HT-29, 72 h, 3 days, 4-parameter fit
Summary of the method: as §3

SMILES | IC50 [1] [µM] | IC50 [2] [µM] | IC50 [3] [µM] | IC50 [4] [µM] | IC50 [5] [µM] | IC50 [6] [µM] | IC50 [7] [µM] | IC50 [8] [µM] | IC50 [9] [µM] | IC50 [10] [µM] | IC50 [11] [µM] | IC50 [12] [µM]
COc1ccc(Nc2nccc(-c3scnc3-c3cccc(NC(=O)Cc4cccs4)c3)n2)cc1OCCN(C)C [Example 78, N-{3-[5-(2-{[3-{[2-(Dimethylamino)ethyl]oxy}-4-(methyloxy)phenyl]amino}-4-pyrimidinyl)-1,3-thiazol-4-yl]phenyl}-2-(2-thienyl)acetamide] | < 0.1 | 0.1 to 1 | 0.1 to 1 | < 0.1 | 0.1 to 1 |  |  |  |  |  |  | 
COc1ccc(Nc2nccc(-c3sc(N)nc3-c3cccc(NC(=O)c4c(F)cccc4F)c3)n2)cc1N(C)C [Example 19, N-{3-[2-Amino-5-(2-{[3-(dimethylamino)-4-(methyloxy)phenyl]amino}-4-pyrimidinyl)-1,3-thiazol-4-yl]phenyl}-2,6-difluorobenzamide] | < 0.1 | 0.1 to 1 | < 0.1 | < 0.1 | < 0.1 |  |  |  |  |  |  | 
O=C(Nc1cccc(-c2nc(NCCCN3CCOCC3)sc2-c2ccnc(Nc3cccc(F)c3)n2)c1)c1c(F)cccc1F [Example 30, 2,6-Difluoro-N-[3-(5-{2-[(3-fluorophenyl)amino]-4-pyrimidinyl}-2-{[3-(4-morpholinyl)propyl]amino}-1,3-thiazol-4-yl)phenyl]benzamide] | < 0.1 | > 1 | 0.1 to 1 | < 0.1 | 0.1 to 1 |  |  |  |  |  |  | 
CN(C)Cc1cccc(Nc2nccc(-c3scnc3-c3cccc(NC(=O)Cc4cccs4)c3)n2)c1 [Example 81] | < 0.1 | 0.1 to 1 | 0.1 to 1 | < 0.1 | 0.1 to 1 |  |  |  |  |  |  | 
CN(C)c1nc(-c2cccc(NC(=O)c3c(F)cccc3F)c2)c(-c2ccnc(Nc3ccc(OCCN4CCCC4)c(Cl)c3)n2)s1 [Example 40, N-{3-[5-{2-[(3-Chloro-4-{[2-(1-pyrrolidinyl)ethyl]oxy}phenyl)amino]-4-pyrimidinyl}-2-(dimethylamino)-1,3-thiazol-4-yl]phenyl}-2,6-difluorobenzamide] | < 0.1 |  |  | < 0.1 |  | 0.1 to 1 | 0.1 to 1 | 0.1 to 1 | 0.1 to 1 | 0.1 to 1 | 0.1 to 1 | 0.1 to 1
COc1ccc(Nc2nccc(-c3sc(N)nc3-c3cccc(NC(=O)c4c(F)cccc4F)c3)n2)cc1OCCN(C)C [Example 2] | < 0.1 |  |  | < 0.1 |  | < 0.1 | < 0.1 | < 0.1 | 0.1 to 1 | 0.1 to 1 | 0.1 to 1 | 0.1 to 1
CN1CCc2ccc(Nc3nccc(-c4sc(N5CCCC5)nc4-c4cccc(NC(=O)c5c(F)cccc5F)c4)n3)cc2C1 [Example 44, 2,6-Difluoro-N-{3-[5-{2-[(2-methyl-1,2,3,4-tetrahydro-7-isoquinolinyl)amino]-4-pyrimidinyl}-2-(1-pyrrolidinyl)-1,3-thiazol-4-yl]phenyl}benzamide] | < 0.1 |  |  | < 0.1 |  | 0.1 to 1 | 0.1 to 1 | 0.1 to 1 | > 1 | > 1 | 0.1 to 1 | 0.1 to 1

The next lines start with the values.

IC50 [1] [µM] | IC50 [2] [µM] | IC50 [3] [µM] | IC50 [4] [µM] | IC50 [5] [µM] | IC50 [6] [µM] | IC50 [7] [µM] | IC50 [8] [µM] | IC50 [9] [µM] | IC50 [10] [µM] | IC50 [11] [µM] | IC50 [12] [µM] | SMILES
< 0.1 | 0.1 to 1 | 0.1 to 1 | 0.1 to 1 | 0.1 to 1 |  |  |  |  |  |  |  | O=C(Cc1cccs1)Nc1cccc(-c2ncsc2-c2ccnc(Nc3ccc4c(c3)NC(=O)CO4)n2)c1 [Example 86, N-[3-(5-{2-[(3-Oxo-3,4-dihydro-2H-1,4-benzoxaziN-6-yl)amino]-4-pyrimidinyl}-1,3-thiazol-4-yl)phenyl]-2-(2-thienyl)acetamide hydrochloride]
< 0.1 | > 1 | < 0.1 | < 0.1 | < 0.1 |  |  |  |  |  |  |  | O=C1COc2cc(Nc3nccc(-c4scnc4-c4cccc(NC(=O)c5cc(F)ccc5F)c4)n3)ccc2N1 [Example 98, 2,5-Difluoro-N-[3-(5-{2-[(3-oxo-3,4-dihydro-2H-1,4-benzoxaziN-7-yl)amino]-4-pyrimidinyl}-1,3-thiazol-4-yl)phenyl]benzamide hydrochloride]
< 0.1 | 0.1 to 1 | < 0.1 | < 0.1 | < 0.1 |  |  |  |  |  |  |  | CCN(CC)CCOc1cccc(Nc2nccc(-c3scnc3-c3cccc(NC(=O)c4c(F)cccc4F)c3)n2)c1 [Example 92, N-[3-(5-{2-[(3-{[2-(Diethylamino)ethyl]oxy}phenyl)amino]-4-pyrimidinyl}-1,3-thiazol-4-yl)phenyl]-2,6-difluorobenzamide-formic acid]
0.1 to 1 | > 1 | > 1 | > 1 | > 1 |  |  |  |  |  |  |  | Cc1nc(-c2cccc(NC(=O)Cc3cccs3)c2)c(-c2ccnc(Nc3cccc(F)c3)n2)s1 [Example 138, N-[3-(5-{2-[(3-Fluorophenyl)amino]-4-pyrimidinyl}-2-methyl-1,3-thiazol-4-yl)phenyl]-2-(2-thienyl)acetamide]
< 0.1 |  |  | < 0.1 |  | 0.1 to 1 | < 0.1 | 0.1 to 1 | 0.1 to 1 | > 1 | > 1 | 0.1 to 1 | CN(C)Cc1cccc(Nc2nccc(-c3scnc3-c3cccc(NC(=O)c4c(F)cccc4F)c3)n2)c1 [Example 90, N-(3-{5-[2-({3-[(Dimethylamino)methyl]-phenyl}amino)-4-pyrimidinyl]-1,3-thiazol-4-yl}phenyl)-2,6-difluorobenzamide-formic acid]
< 0.1 |  |  | < 0.1 |  | 0.1 to 1 | 0.1 to 1 | > 1 | > 1 | > 1 | > 1 | 0.1 to 1 | Cc1nc(-c2cccc(NC(=O)c3cc(F)ccc3F)c2)c(-c2ccnc(Nc3ccc(OCCN(C)C)c(F)c3)n2)s1 [Example 128, N-[3-(5-{2-[(4-{[2-(Dimethylamino)ethyl]oxy}-3-fluorophenyl)amino]-4-pyrimidinyl}-2-methyl-1,3-thiazol-4-yl)phenyl]-2,5-difluorobenzamide]
